From PMC2824119 (Cancer Chemotherapy and Pharmacology, 2010)

Tests used:
CYP1A2 [1] = biological target: T1, CYP1A2 (Homo sapiens, UniProt P05177); conditions: azacitidine at 70 μM or lower concentrations
T1 sequence (P05177 1-516): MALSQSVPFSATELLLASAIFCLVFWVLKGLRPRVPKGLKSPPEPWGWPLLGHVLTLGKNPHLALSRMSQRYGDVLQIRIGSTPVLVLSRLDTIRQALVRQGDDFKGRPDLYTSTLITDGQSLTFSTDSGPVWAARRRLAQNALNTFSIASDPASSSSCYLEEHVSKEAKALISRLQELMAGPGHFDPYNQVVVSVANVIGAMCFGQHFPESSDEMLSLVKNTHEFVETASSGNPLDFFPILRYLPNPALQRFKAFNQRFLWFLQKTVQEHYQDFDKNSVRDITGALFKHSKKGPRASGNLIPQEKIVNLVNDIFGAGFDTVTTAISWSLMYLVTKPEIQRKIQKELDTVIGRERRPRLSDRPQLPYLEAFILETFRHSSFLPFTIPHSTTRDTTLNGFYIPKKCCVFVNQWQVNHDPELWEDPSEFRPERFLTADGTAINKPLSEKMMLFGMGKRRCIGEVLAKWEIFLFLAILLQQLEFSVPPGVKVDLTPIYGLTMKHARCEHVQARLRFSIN

CYP2E1 = CYP2E1 (Homo sapiens, UniProt P05181); test: CYP2E1 inhibition in human liver microsomes; type: in vitro ADME
Sequence of CYP2E1 (P05181 whole entry): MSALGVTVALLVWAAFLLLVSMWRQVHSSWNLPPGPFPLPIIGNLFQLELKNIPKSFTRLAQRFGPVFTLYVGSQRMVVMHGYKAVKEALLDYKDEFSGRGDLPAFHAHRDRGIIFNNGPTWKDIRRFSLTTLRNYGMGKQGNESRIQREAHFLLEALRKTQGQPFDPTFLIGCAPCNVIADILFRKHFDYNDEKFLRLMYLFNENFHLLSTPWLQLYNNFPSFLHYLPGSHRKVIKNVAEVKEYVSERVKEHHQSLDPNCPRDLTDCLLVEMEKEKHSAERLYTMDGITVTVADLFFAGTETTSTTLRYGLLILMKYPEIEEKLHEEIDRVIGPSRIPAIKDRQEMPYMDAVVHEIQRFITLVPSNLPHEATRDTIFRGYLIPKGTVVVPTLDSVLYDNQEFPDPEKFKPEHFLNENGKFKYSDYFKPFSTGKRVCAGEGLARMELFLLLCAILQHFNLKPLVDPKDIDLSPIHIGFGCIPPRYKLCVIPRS

CYP1A2 [2] = system: CYP1A2
CYP3A4/5 = conditions: hepatocytes

For `Nc1ncn([C@@H]2O[C@H](CO)[C@@H](O)[C@H]2O)c(=O)n1` [Azacitidine], the “Inhibition of CYP1A2” value (CYP1A2 [1]) was “no inhibition”, the “Inhibition of CYP2E1” value (CYP2E1; azacitidine at 70 μM or lower concentrations) was “no inhibition” and the Percent inhibition (CYP2E1; azacitidine at 100 μM, chlorzoxazone 40 μM, HLM 0.8 mg/mL) was under 30%. For the same compound, the “Decrease of CYP1A2-mediated 7-ethoxyresorufin O-dealkylation” value (CYP1A2 [2]; azacitidine 100 μM, not statistically significant) was 29%, the “Induction of CYP1A2 activity” value (CYP1A2 [2]; clinically relevant concentrations, once daily for three consecutive days) was “did not induce” and the “Induction of CYP3A4/5 activity” value (CYP3A4/5) was “did not induce”. For the same compound, the “Decrease of CYP3A4/5-catalyzed testosterone 6β-hydroxylation” value (CYP3A4/5; human) was 78%.
